Results as given in patent US6921775B2, “Methods for modulating brain damage” (Children's Medical Center Corporation, priority 2001, dated 2005).

Columns and labels:
OL precursor cells = assay: Cell lineage progression (stage-specific markers A2B5, O4, O1, MBP) in OL precursor cultures; assay type: cell-based, rat; details: topiramate 30 μM, NBQX 100 μM; 0, 2, 6 and 10 days of maturation
Description: Primary oligodendrocyte precursor cells were isolated from mixed glial cultures of the forebrains of newborn Sprague-Dawley rats using a selective detachment procedure as described in detail elsewhere (McCarthy and de Vellis, 1980; Back et al., 1998), and further purified by differential adhesion (Back et al., 1998). Precursor cells were maintained in a chemically-defined medium (CDM) supplemented with recombinant human platelet derived growth factor-AA (PDGF, 10 ng/ml) and basic fibroblast growth factor (bFGF, 10 ng/ml). The CDM was Dulbecco Modified Eagle's Medium (DMEM) containing D-glucose (25 mM), L-glutamine (4 mM), sodium pyruvate (1 mM), human apo-transferrin (50 μg/ml), bovine pancreatic insulin (5 μg/ml), sodium selenium (30 nM), hydrocortisone (10 nM), D-biotin (10 nM), and bovine serum albumin (BSA, 1 mg/ml). All chemicals were from Sigma. […] Cell lineage progression was monitored by the sequential emergence of stage-specific immunochemical markers: A2B5, O4, O1, and MBP, as described previously (Back et al., 1998). […] The effect of these protocols on maturation was also assessed. Differentiation of the cultures in the absence or presence of topiramate (30 μM) or NBQX (100 μM) was monitored by cell morphology and the sequential emergence of a panel of OL stage-specific markers (A2B5, O4, O1, and MBP), following 0, 2, 6, and 10 days of maturation.

A2B5+ OL precursor cells = assay: Cell proliferation (BrdU incorporation) in OL precursor cultures; assay type: cell-based, rat; details: topiramate 30 μM, NBQX 100 μM; 24 hours, BrdU last 2 hours
Description: Primary oligodendrocyte precursor cells were isolated from mixed glial cultures of the forebrains of newborn Sprague-Dawley rats using a selective detachment procedure as described in detail elsewhere (McCarthy and de Vellis, 1980; Back et al., 1998), and further purified by differential adhesion (Back et al., 1998). Precursor cells were maintained in a chemically-defined medium (CDM) supplemented with recombinant human platelet derived growth factor-AA (PDGF, 10 ng/ml) and basic fibroblast growth factor (bFGF, 10 ng/ml). […]
Cell proliferation was measured by determining the incorporation of the thymidine analog 5-bromo-2′-deoxyuridine (BrdU, […]) into replicating DNA of cells during the last 2 hr of the experiment. […] After the cells were incubated in a solution containing 2% BSA and 0.2% Triton X-100 for 30 min, BrdU incorporation was detected employing a murine monoclonal anti-BrdU antibody (Chemicon) and FITC-conjugated goat anti-mouse IgG. Quantitative analysis was performed by determining the percent of BrdU^+ cells in the A2B5^+ population. […] All assays were performed in triplicate and at least 1000 cells counted for each data point.
The proliferative capability of the cells was measured by the incorporation of the thymidine analog BrdU into DNA. […] A quantitative analysis was obtained by counting the number of BrdU^+ cells in the A2B5^+ population and calculating a percent. […]

For `CC1(C)O[C@@H]2[C@@H](CO[C@@]3(COS(N)(=O)=O)OC(C)(C)O[C@@H]23)O1` [topiramate], the “progression along the OL lineage (morphology, A2B5, O4, O1, MBP)” value (OL precursor cells) was “indistinguishable from the progression of the control cultures” and the “rate of BrdU incorporation (% BrdU+/A2B5+)” value (A2B5+ OL precursor cells) was “Neither topiramate or NBQX altered the rate of BrdU incorporation”.
With `NS(=O)(=O)c1cccc2c1c([N+](=O)[O-])cc1nc(O)c(O)nc12` [NBQX, 2,3-Dioxo-6-nitro-1,2,3,4-tetrahydrobenzo[f]quinoxaline-7-sulphonamide] the “progression along the OL lineage (morphology, A2B5, O4, O1, MBP)” value (OL precursor cells) was “indistinguishable from the progression of the control cultures” and the “rate of BrdU incorporation (% BrdU+/A2B5+)” value (A2B5+ OL precursor cells) was “Neither topiramate or NBQX altered the rate of BrdU incorporation”.
